Measurements: ChEMBL document CHEMBL3739399, “Discovery of Indazole Derivatives as a Novel Class of Bacterial Gyrase B Inhibitors” (ACS Med Chem Lett, 2015)
In brackets after ≈: the same amount, converted by molar mass.

What was measured:
[1] = system: Enterococcus faecium; test: Antibacterial activity against Enterococcus faecium for 18 to 20 hrs by broth microdilution method; type: functional
[2] = Inhibition of Staphylococcus aureus topoisomerase 4 by fluorescence analysis
[3] = system: Staphylococcus aureus; test: Antibacterial activity against methicillin-sensitive Staphylococcus aureus 42 for 18 to 20 hrs by broth microdilution method; type: functional
[4] = system: Streptococcus pneumoniae; test: Antibacterial activity against Streptococcus pneumoniae for 18 to 24 hrs by broth microdilution method; type: functional
[5] = Half-life in mouse at 2 mg/kg, iv by LC-MS/MS analysis; type: ADME, organism-based; settings: in vivo
[6] = Log D of compound at pH 7.4; settings: buffer
[7] = molecular target: DNA gyrase subunit B (Staphylococcus aureus, UniProt P0A0K8); test: Inhibition of Staphylococcus aureus Gyrase B ATPase activity by fluorescence analysis
[8] = system: Streptococcus pneumoniae; test: Antibacterial activity against Streptococcus pneumoniae 402 infected in sc dosed mouse assessed as reduction in 2 log CFU in lung compound administered as BID for 1 day measured 24 hrs after last dose; type: functional
[9] = system: Streptococcus pneumoniae; test: Antibacterial activity against Streptococcus pneumoniae 402 infected in sc dosed mouse assessed as reduction in 3 log CFU in lung compound administered as BID for 1 day measured 24 hrs after last dose; type: functional
[10] = system: Staphylococcus aureus; test: Antibacterial activity against Staphylococcus aureus 1118 infected in sc and iv dosed mouse assessed as septicemia compound administered 1 hr post-infection twice for 1 day measured for 7 days; type: functional; settings: read-out: PD50
[11] = system: Staphylococcus aureus; test: Antibacterial activity against methicillin and ciprofloxacin-resistant Staphylococcus aureus 1721 for 18 to 20 hrs by broth microdilution method; type: functional
[12] = system: Enterococcus faecalis; test: Antibacterial activity against Enterococcus faecalis for 18 to 20 hrs by broth microdilution method; type: functional
[13] = system: Mus musculus; test: Dose-normalized AUC in mouse at 2 mg/kg, iv by LC-MS/MS analysis; type: ADME, organism-based; settings: in vivo
[14] = Volume of distribution at steady state in mouse at 2 mg/kg, iv by LC-MS/MS analysis; type: ADME, organism-based; settings: in vivo, read-out: Vdss
[15] = Clearance in mouse at 2 mg/kg, iv by LC-MS/MS analysis; type: ADME, organism-based; settings: in vivo
[16] = system: Staphylococcus aureus; test: Antibacterial activity against methicillin-resistant Staphylococcus aureus 1118 for 18 to 20 hrs by broth microdilution method; type: functional

Chain of DNA gyrase subunit B (P0A0K8 whole entry): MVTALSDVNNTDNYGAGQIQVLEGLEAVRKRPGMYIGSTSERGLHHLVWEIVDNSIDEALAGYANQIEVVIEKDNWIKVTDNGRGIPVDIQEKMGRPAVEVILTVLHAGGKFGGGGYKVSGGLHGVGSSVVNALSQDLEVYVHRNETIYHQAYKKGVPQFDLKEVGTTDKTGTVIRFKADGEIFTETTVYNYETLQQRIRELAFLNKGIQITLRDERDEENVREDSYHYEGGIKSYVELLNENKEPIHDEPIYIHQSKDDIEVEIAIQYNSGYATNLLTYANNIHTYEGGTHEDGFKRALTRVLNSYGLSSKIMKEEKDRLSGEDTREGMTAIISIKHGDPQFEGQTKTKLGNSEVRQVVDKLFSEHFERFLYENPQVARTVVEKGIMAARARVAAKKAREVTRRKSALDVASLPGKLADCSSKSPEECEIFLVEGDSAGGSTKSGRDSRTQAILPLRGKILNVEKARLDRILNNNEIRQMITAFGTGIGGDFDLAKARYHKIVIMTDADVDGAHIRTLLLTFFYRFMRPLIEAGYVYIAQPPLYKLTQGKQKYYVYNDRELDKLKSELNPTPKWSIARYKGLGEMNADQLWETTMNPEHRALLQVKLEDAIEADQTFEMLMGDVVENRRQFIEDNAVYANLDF

| Structure (SMILES) | MIC [1] | IC50 [2] | MIC [3] | MIC [4] | half-life [5] | logD [6] | IC50 [7] | ED [8] | ED [9] | ED50 [10] | MIC [11] | MIC [12] | AUC/dose [13] | Vd [14] | clearance [15] | MIC [16] |
| --- | --- | --- | --- | --- | --- | --- | --- | --- | --- | --- | --- | --- | --- | --- | --- | --- |
| CCCc1cccc2c(-c3cnc(-c4ccc(C(=O)O)nc4)s3)n[nH]c12 | 0.06 µg/mL (≈ 0.165 µM) | 56 nM | 0.06 µg/mL (≈ 0.165 µM) | 0.06 µg/mL (≈ 0.165 µM) | 2.1 h | 1.7 | 10 nM | >25 mg/kg | >25 mg/kg | 1 mg/kg | 0.06 µg/mL (≈ 0.165 µM) | 0.03 µg/mL (≈ 0.0823 µM) | 0.159 µg·h/mL/mg/kg | 3.47 L/kg | 105 mL/min/kg | 0.06 µg/mL (≈ 0.165 µM) |
| CCCc1cccc2c(-c3cnc(-c4cnc(C(=O)O)c(OC)c4)s3)n[nH]c12 | 4 µg/mL (≈ 10.1 µM) | 115 nM | 1 µg/mL (≈ 2.54 µM) | 1 µg/mL (≈ 2.54 µM) |  |  | 14 nM |  |  |  | > 8 µg/mL | 2 µg/mL (≈ 5.07 µM) |  |  |  | 1 µg/mL (≈ 2.54 µM) |
| C=CCc1cccc2c(-c3cnc(-c4ccc(C(=O)O)nc4)s3)n[nH]c12 | 0.125 µg/mL (≈ 0.345 µM) |  | 0.03 µg/mL (≈ 0.0828 µM) | 0.25 µg/mL (≈ 0.69 µM) |  |  | 9 nM |  |  |  | 0.06 µg/mL (≈ 0.166 µM) | 0.125 µg/mL (≈ 0.345 µM) |  |  |  | 0.03 µg/mL (≈ 0.0828 µM) |
| CCCc1cccc2c(-c3cnc(-c4ccc(CC(=O)O)nc4)s3)n[nH]c12 | 4 µg/mL (≈ 10.6 µM) | 434 nM | 0.25 µg/mL (≈ 0.661 µM) | 0.5 µg/mL (≈ 1.32 µM) |  |  | 25 nM |  |  |  | 0.25 µg/mL (≈ 0.661 µM) | 0.5 µg/mL (≈ 1.32 µM) |  |  |  | 0.25 µg/mL (≈ 0.661 µM) |
| CCCn1c(=O)ccc2c(-c3cnc(-c4ccc(C(=O)O)nc4)s3)n[nH]c21 |  | 56 nM | > 32 µg/mL | 0.06 µg/mL (≈ 0.157 µM) |  | 0.9 | < 8 nM |  |  |  |  |  |  |  |  |  |
| CCCc1cccc2c(-c3cnc(-c4cnc(C(=O)O)cc4C)s3)n[nH]c12 | 0.013 µg/mL (≈ 0.0344 µM) | 60 nM | 0.02 µg/mL (≈ 0.0528 µM) | 0.125 µg/mL (≈ 0.33 µM) |  |  | 12 nM |  |  |  | 0.03 µg/mL (≈ 0.0793 µM) | 0.06 µg/mL (≈ 0.159 µM) |  |  |  | 0.02 µg/mL (≈ 0.0528 µM) |
| CCCc1cccc2c(-c3cnc(-c4ccc(C(=O)O)c(=O)[nH]4)s3)n[nH]c12 | > 8 µg/mL |  | > 8 µg/mL | > 8 µg/mL |  |  | 168 nM |  |  |  | > 8 µg/mL | > 8 µg/mL |  |  |  | > 8 µg/mL |
| CCCOc1nccc2c(-c3cnc(-c4cnc(C(=O)O)cc4C)s3)n[nH]c12 | 8 µg/mL (≈ 20.2 µM) |  | 8 µg/mL (≈ 20.2 µM) | 0.125 µg/mL (≈ 0.316 µM) |  |  | 52 nM |  |  |  | 8 µg/mL (≈ 20.2 µM) | 4 µg/mL (≈ 10.1 µM) |  |  |  | 8 µg/mL (≈ 20.2 µM) |
| CCCc1c(O)ccc2c(-c3cnc(-c4cnc(C(=O)O)cc4C)s3)n[nH]c12 | 0.25 µg/mL (≈ 0.634 µM) |  | 0.125 µg/mL (≈ 0.317 µM) | 0.06 µg/mL (≈ 0.152 µM) |  |  | 8 nM |  |  |  | 0.125 µg/mL (≈ 0.317 µM) | 0.06 µg/mL (≈ 0.152 µM) |  |  |  | 0.125 µg/mL (≈ 0.317 µM) |
| O=C(O)c1ccc(-c2ncc(-c3n[nH]c4c(CC5CC5)cccc34)s2)cn1 | 4 µg/mL (≈ 10.6 µM) |  | 0.05 µg/mL (≈ 0.133 µM) | 0.5 µg/mL (≈ 1.33 µM) |  |  | 13 nM |  |  |  | 0.1 µg/mL (≈ 0.266 µM) | 0.125 µg/mL (≈ 0.332 µM) |  |  |  | 0.05 µg/mL (≈ 0.133 µM) |
| CCCOc1nccc2c(-c3cnc(-c4ccc(COP(=O)([O-])[O-])nc4)s3)n[nH]c12.[Na+].[Na+] | 8 µg/mL |  | 8 µg/mL | 1 µg/mL |  |  | < 8 nM |  |  |  | > 8 µg/mL | > 8 µg/mL |  |  |  | 8 µg/mL |
| CCCc1c(O)ccc2c(-c3cnc(-c4ccc(C(=O)O)c(F)c4)s3)n[nH]c12 | 0.02 µg/mL (≈ 0.0503 µM) |  | 0.125 µg/mL (≈ 0.315 µM) | 0.06 µg/mL (≈ 0.151 µM) |  |  | 11 nM |  |  |  | 0.25 µg/mL (≈ 0.629 µM) | 0.02 µg/mL (≈ 0.0503 µM) |  |  |  | 0.25 µg/mL (≈ 0.629 µM) |
| CCCc1cccc2c(-c3cnc(-c4ccc(C(=O)O)cn4)s3)n[nH]c12 | 4 µg/mL (≈ 11 µM) | 9900 nM | 8 µg/mL (≈ 22 µM) | 8 µg/mL (≈ 22 µM) |  |  | 49 nM |  |  |  | > 8 µg/mL | 8 µg/mL (≈ 22 µM) |  |  |  | > 8 µg/mL |
| CCCc1cccc2c(-c3cnc(-c4ccc(C(=O)O)c(F)c4)s3)n[nH]c12 | 0.06 µg/mL (≈ 0.157 µM) | 1300 nM | 0.125 µg/mL (≈ 0.328 µM) | 0.25 µg/mL (≈ 0.655 µM) | 2 h |  | < 8 nM | 63 mg/kg | 97.6 mg/kg |  | 0.125 µg/mL (≈ 0.328 µM) | 0.06 µg/mL (≈ 0.157 µM) | 0.397 µg·h/mL/mg/kg | 1.7 L/kg | 42 mL/min/kg | 0.125 µg/mL (≈ 0.328 µM) |
| COc1c(N2C[C@@H]3CCCN[C@@H]3C2)c(F)cc2c(=O)c(C(=O)O)cn(C3CC3)c12 [MOXIFLOXACIN] |  |  |  | 0.06 µg/mL (≈ 0.149 µM) |  |  |  | 28.6 mg/kg | 50.8 mg/kg |  |  |  |  |  |  |  |
| CO[C@@H]1[C@@H](OC(N)=O)[C@@H](O)[C@H](Oc2ccc3c(O)c(NC(=O)c4ccc(O)c(CC=C(C)C)c4)c(=O)oc3c2C)OC1(C)C [NOVOBIOCIN] |  |  |  | 2 µg/mL (≈ 3.26 µM) |  |  |  | >100 mg/kg | >100 mg/kg | 10 mg/kg |  |  |  |  |  | 0.125 µg/mL (≈ 0.204 µM) |
